Converted amounts (≈) assume the structure as drawn. Counter-ions that a name gives are not always drawn.
What was measured:
CMT12 cell line = conditions: 48 hours MTT
Experimental: (§1) CMT12, 17-71 and D17 cells are plated at a density of 2500 cells per well in 96-well tissue culture-treated plates (Laboratory Product Sales, Rochester, New York). All cell lines are treated with identical concentrations of the pure CBD ([…]) and various concentrations of doxorubicin or vincristine. The concentration of doxorubicin varies between cell lines in order to achieve between 20% and 80% proliferation inhibition. The cell lines are treated with serial dilutions of doxorubicin as follows; CMT12 and D17 (0.067-2 μM) and 17-71 (0.0167-0.5 μM). Methanol is used as a vehicle control for all CBD treatments and sterile water for doxorubicin and vincristine at the highest doses used to represent the vehicle control treated wells. Cells are then incubated for 48 hours prior to performing MTT assays, as previously described. Wells treated with the vehicle control are considered to represent 100% proliferating cells in triplicate over three experiments. Percent viable cells for each specific combination are averaged and reported as mean percent proliferation+/— SD for further CI evaluation.
(§2) Raw data from MTT proliferation assays and trypan blue exclusion assays (individual optical density of each well) are normalized to the vehicle control treatment for each cell line, considered to represent 100% proliferating cells (single or combined treatment). The percent proliferating cells is determined by comparing optical density readings or live counts, respectively, of treatment wells at each concentration compared with vehicle control wells in each cell line.
(§3) The compound interactions of chemotherapy and CBD treatment in the CI studies are calculated by multiple drug effect analysis using Compusyn software (v.2; Compusyn Inc, Paramus, New Jersey) which employs the median equation principle according to the methodology described by Chou and Talalay to determine a CI value by the Formula I (Chou T C, Drug combination studies and their synergy quantification using the Chou-Talalay method, Cancer Res., 2010, 70(2), pp. 440-446, which is incorporated herein by reference in its entirety):
(§4) where (D)1 and (D)2 are the doses of both compounds in combination and (Dx)1 and (Dx)2 are the doses of each compound alone at x percent of inhibition. CI values≤0.9 indicate synergism, a CI value>0.9 and <1.1 indicates an additive effect, and CI values≥1.1 indicate antagonism.

D17 cell line = conditions: 48 hours MTT
Experimental: as §1, §2, §3, §4

canine P-glycoprotein = target: T1, canine P-glycoprotein (Canis lupus familiaris, UniProt C0KKU9); assay: P-glycoprotein competitive transport assay (rhodamine 123, MDCK PGP cells); format: in vitro ADME; conditions: rhodamine competition, CBD at 1000 ng/mL
T1 construct: host or cells: MDCK PGP cells (canine P-gp expressing cell line)
Experimental: In this second study, a competitive P-gp substrate assay incorporating a canine P-gp expressing cell line is used to assess each test compound's ability to compete with the P-gp substrate rhodamine 123. Each concentration is tested on 3 separate days with same-day duplicates. Positive controls and negative controls are included in each run.
Results for each concentration of test compound evaluated are reported as non-P-gp substrate, weak P-gp substrate, moderate P-gp substrate, or strong P-gp substrate. The concentrations for CBD and CBDA are as follows: 10 ng/mL, 100 ng/mL and 1,000 ng/mL.
A competitive P-gp substrate assay using a canine P-gp expressing cell line was used to assess CBDA and/or CBD as a substrate for canine P-glycoprotein.

[1] = Pharmacokinetics of three oral forms of CBD-rich hemp extract in dogs (serum LC-MS/MS); conditions: oral hemp extract forms 2 mg/kg CBD/CBDA
From the text: The pharmacokinetics of cannabidiol (CBD), cannabidiolic acid (CBDA), Δ9-tetrahydrocannabinol (THC), and tetrahydrocannabinolic acid (THCA) on three oral forms of CBD-rich hemp extract that contained near equal amounts of CBD and CBDA, and minor amounts (<0.3% by weight) of THC and THCA in dogs were studied. The metabolized psychoactive component of THC, 11-hydroxy-Δ9-tetrahydrocannabinol (11-OH-THC) and CBD metabolites 7-hydroxycannabidiol (7-OH-CBD) and 7-nor-7-carboxycannabidiol (7-COOH-CBD) were also assessed to better understand the pharmacokinetic differences between three formulations regarding THC and CBD, and their metabolism. Six purpose-bred female beagles were utilized for study purposes, each having an initial 7-point, 24-h pharmacokinetic study performed using a dose of 2 mg/kg body weight of CBD/CBDA (˜1 mg/kg CBD and ˜1 mg/kg CBDA). Dogs were then dosed every 12 h for 2 weeks and had further serum analyses at weeks 1 and 2, 6 h after the morning dose to assess serum cannabinoids. Serum was analyzed for each cannabinoid or cannabinoid metabolite using liquid chromatography and tandem mass spectroscopy (LC-MS/MS).

[2] = test system: D17 osteosarcoma cell line; assay: 48 hours MTT proliferation assay, D17; format: cell-based, canine; conditions: pure compound
Experimental: (§5) 3-(4,5-Dimethylthaizol-2-yl)-2,5-diphenyltetrazolium bromide (MTT) assays are performed on all previously described cell lines; CMT12, HMPOS, D17, Abrams and 17-71. […] Cells are treated with vehicle (methanol or ethanol/DMSO mix) or various concentrations of the CBD, CBDA or CBD-rich hemp extract ranging from 0.42 to 20 μg/mL in serial dilution for 48 hours. MTT assays are performed after 48 hours of treatment by adding 20 μL of MTT dye ([…] filtered 5 mg/mL in phosphate-buffered saline [PBS]) to each well and incubating at 37° C. in 5% CO2 for 2 hours. The media is then aspirated, washed once with 200 μL of PBS and then solubilized in 200 μL of ethanol. Immediate analysis of the optical density of each well is performed using a spectrophotometric plate reader (Epoch; Biotek, Winooski, Vermont) at a wavelength of 570 nm as previously described (e.g., Vega-Avila E and Pugsley M K, An overview of colorimetric assay methods used to assess survival or proliferation of mammalian cells, Proc West Pharmacol Soc., 2011, 54, pp. 10-14 which is incorporated herein by reference in its entirety). The percent proliferating cells of control for each concentration is averaged and reported as a mean+/—SD from triplicate wells over three experiments.
(§6) For CBD, CBDA and hemp extract concentrations needed to obtain a 50% inhibition of cell proliferation (IC50) are then calculated across experiments by Probit analysis using XLFit5 software (IDBS, Guildford, United Kingdom) for reporting the results for each cell line.

[3] = test system: Abrams osteosarcoma cell line; assay: 48 hours MTT proliferation assay, Abrams; format: cell-based, canine; conditions: pure compound
Experimental: as §5, §6

CYP3A12 = CYP3A12 (Canis lupus familiaris, UniProt P24463); assay: CYP3A12 activity inhibition in pooled dog liver microsomes; conditions: CYP3A12; no preincubation vs 20 min preincubation; 10 μM
Experimental: (§7) Inhibition potency (i.e. IC50) is determined by measuring the decrement in metabolism of P450-specific marker activities in pooled dog liver microsomes with increasing concentrations of CBD, CBDA, and hemp extracts. P450-specific markers include bupropion 6-hydroxylation (CYP2B11), dextromethorphan 0-demethylation (CYP2D15) and omeprazole sulfoxidation (CYP3A12). IC50 values are determined both with and without preincubation of liver microsomes with potential inhibitor to evaluate whether there is mechanism-based time-dependent inhibition.
(§8) The following parameters are assessed: (1) the rates of CBD and CBDA metabolism by dog liver microsomes and by 11 recombinant canine P450 enzymes; (2) the predicted percent contribution of each P450 to total CBD and CBDA metabolism in dog liver; and (3) IC50 values for inhibition of CYP2B11, CYP2D15 and CYP3A12 metabolism in dog liver, both with and without inhibitor preincubation.
(§9) FIGS. 13-15 show activity assays for CYP3A12 (FIGS. 13A and 13B), CYP2B11 (FIGS. 14A and 14B), and CYP2D15 (FIGS. 15A and 15B). Assays using either no preincubation (FIGS. 13A, 14A, and 15A) or 20 minutes of preincubation (FIGS. 13B, 14B, and 15B) were performed.

CYP2D15 = target: T2, CYP2D15 (Canis lupus familiaris, UniProt Q29473); assay: CYP2D15 activity inhibition in pooled dog liver microsomes; format: in vitro ADME; conditions: no preincubation vs 20 min preincubation, 10 μM
T2 construct: P450-specific marker activities in pooled dog liver microsomes; from tissue; host or cells: pooled dog liver microsomes
T2 sequence (Q29473 1-500): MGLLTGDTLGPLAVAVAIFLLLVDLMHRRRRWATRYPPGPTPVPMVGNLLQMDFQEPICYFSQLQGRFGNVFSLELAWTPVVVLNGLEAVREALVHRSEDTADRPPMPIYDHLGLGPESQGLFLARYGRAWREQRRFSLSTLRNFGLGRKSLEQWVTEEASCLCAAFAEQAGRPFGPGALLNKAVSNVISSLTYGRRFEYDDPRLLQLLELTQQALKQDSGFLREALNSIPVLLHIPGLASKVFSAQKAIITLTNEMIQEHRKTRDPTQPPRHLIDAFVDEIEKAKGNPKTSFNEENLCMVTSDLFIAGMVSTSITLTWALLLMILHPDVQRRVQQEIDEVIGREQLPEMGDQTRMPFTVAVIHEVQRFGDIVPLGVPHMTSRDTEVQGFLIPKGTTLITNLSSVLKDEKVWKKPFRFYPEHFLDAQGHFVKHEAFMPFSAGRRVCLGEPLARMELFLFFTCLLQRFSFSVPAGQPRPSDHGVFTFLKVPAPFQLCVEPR

[4] = test system: CMT12 mammary gland carcinoma cell line; assay: 48 hours MTT proliferation assay, CMT12; format: cell-based, canine; conditions: pure compound
Experimental: as §5, §6

CYP2B11 = target: T3, CYP2B11 (Canis lupus familiaris, UniProt P24460); assay: CYP2B11 activity inhibition in pooled dog liver microsomes; conditions: CYP2B11; no preincubation vs 20 min preincubation; 10 μM
T3 sequence (P24460 1-494): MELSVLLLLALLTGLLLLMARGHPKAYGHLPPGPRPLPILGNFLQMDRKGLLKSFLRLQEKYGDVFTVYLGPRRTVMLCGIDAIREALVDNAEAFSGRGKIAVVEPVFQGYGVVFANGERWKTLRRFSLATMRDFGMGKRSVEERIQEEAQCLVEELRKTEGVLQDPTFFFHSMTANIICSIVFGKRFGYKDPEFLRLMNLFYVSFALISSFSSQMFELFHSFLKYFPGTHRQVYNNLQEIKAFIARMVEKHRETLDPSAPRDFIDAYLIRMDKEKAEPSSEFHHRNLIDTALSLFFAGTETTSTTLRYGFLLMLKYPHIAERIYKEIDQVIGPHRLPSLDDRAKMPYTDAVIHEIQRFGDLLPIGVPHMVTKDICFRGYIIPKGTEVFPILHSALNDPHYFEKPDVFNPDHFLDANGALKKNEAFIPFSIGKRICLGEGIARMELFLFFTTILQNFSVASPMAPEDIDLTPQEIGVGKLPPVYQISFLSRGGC
Experimental: as §7, §8, §9

[5] = test system: HMPOS osteosarcoma cell line; assay: 48 hours MTT proliferation assay, HMPOS; format: cell-based, canine; conditions: pure compound
Experimental: as §5, §6

[6] = test system: 17-71 B cell lymphoma cell line; assay: 48 hours MTT proliferation assay, 17-71; format: cell-based, canine; conditions: pure compound
Experimental: as §5, §6

T1 sequence (C0KKU9 1-1281): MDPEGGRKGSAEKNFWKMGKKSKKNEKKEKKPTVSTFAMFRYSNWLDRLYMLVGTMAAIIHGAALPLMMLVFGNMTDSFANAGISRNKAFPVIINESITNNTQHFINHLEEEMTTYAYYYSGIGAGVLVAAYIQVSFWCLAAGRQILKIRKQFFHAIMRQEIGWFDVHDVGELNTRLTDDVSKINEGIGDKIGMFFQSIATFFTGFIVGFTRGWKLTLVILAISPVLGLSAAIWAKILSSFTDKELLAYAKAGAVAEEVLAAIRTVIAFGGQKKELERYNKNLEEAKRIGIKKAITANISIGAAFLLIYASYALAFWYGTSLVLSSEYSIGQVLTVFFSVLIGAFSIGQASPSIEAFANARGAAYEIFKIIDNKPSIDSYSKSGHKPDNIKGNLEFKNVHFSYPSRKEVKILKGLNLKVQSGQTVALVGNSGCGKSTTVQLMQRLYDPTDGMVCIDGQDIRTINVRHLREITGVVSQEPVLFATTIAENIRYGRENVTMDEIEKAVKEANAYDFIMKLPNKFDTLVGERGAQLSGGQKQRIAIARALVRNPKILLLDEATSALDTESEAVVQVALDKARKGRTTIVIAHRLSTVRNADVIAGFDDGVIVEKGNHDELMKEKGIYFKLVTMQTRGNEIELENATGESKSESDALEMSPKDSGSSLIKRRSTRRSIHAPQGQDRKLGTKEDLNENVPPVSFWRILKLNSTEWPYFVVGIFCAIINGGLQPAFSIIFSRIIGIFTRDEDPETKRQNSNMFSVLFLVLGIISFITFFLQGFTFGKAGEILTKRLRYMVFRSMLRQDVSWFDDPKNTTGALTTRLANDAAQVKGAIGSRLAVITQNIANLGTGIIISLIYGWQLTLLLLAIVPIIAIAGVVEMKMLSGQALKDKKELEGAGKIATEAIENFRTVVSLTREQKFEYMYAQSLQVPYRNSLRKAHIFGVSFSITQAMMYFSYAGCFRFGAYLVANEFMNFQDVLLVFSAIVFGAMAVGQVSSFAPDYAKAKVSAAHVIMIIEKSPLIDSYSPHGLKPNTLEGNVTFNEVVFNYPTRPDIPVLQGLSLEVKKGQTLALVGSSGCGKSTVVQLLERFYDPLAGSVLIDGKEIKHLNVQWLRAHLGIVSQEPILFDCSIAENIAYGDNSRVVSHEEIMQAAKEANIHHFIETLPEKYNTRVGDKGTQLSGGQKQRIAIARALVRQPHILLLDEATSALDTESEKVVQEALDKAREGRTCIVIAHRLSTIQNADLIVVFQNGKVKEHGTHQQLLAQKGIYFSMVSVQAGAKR
Chain of CYP3A12 (P24463 whole entry): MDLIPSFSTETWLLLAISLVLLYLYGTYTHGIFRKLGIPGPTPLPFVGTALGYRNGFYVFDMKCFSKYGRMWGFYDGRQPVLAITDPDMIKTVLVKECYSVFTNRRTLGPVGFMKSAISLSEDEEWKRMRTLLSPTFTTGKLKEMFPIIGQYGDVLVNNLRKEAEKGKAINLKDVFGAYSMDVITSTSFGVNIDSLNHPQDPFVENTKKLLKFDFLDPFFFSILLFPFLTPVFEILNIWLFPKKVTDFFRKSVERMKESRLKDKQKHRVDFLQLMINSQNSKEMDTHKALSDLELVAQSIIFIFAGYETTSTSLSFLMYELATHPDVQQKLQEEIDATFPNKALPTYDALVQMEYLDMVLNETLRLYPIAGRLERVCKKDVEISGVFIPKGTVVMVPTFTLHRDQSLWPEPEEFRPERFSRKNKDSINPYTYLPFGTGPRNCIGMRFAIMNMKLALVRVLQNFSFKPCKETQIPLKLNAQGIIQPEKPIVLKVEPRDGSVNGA

COc1cccc2c1C(=O)c1c(O)c3c(c(O)c1C2=O)C[C@@](O)(C(=O)CO)C[C@@H]3O[C@H]1C[C@H](N)[C@H](O)[C@H](C)O1 [doxorubicin, doxorubicin hydrochloride]
inhibitory concentrations from IC20-IC80 (CMT12 cell line; doxorubicin alone): 500 to 2000 nM | inhibitory concentrations from IC20-IC80 (D17 cell line; doxorubicin alone): 500 to 2000 nM

N.N.O=C([O-])C1(C(=O)[O-])CCC1.[Pt+2] [Carboplatin]
Mean MFI ratio compound:vehicle (canine P-glycoprotein): 0.74 | MFI in MDCK PGP cells (canine P-glycoprotein; rhodamine alone 215): 160

CC[C@]1(O)C[C@H]2CN(CCc3c([nH]c4ccccc34)[C@@](C(=O)OC)(c3cc4c(cc3OC)N(C=O)[C@H]3[C@@](O)(C(=O)OC)[C@H](OC(C)=O)[C@]5(CC)C=CCN6CC[C@]43[C@@H]65)C2)C1 [vincristine, vincristine sulfate]
IC20-IC80 values (CMT12 cell line; vincristine alone): 1.7 to 6.8 nM | IC20-IC80 values (D17 cell line; vincristine alone): 1.7 to 6.8 nM

CCCCCc1cc(O)c2c(c1)OC(C)(C)[C@@H]1CCC(C)=C[C@@H]21 [THC, delta-9-tetrahydrocannabinol]
THC serum concentration [1]: below the quantitation limit of the assay for nearly all samples

C=C(C)[C@@H]1CCC(C)=C[C@H]1c1c(O)cc(CCCCC)c(C(=O)O)c1O [CBDA, cannabidiolic acid]
IC50 (Probit) [2]: could not be calculated because of lack of growth inhibition | concentrations that significantly diminished proliferation vs vehicle control ([2]; P<0.05): 20 µg/mL | IC50 (Probit) [3]: could not be calculated because of lack of growth inhibition | concentrations that significantly diminished proliferation vs vehicle control ([3]; P<0.05): 20 µg/mL | time-dependent inhibition (TDI) (CYP3A12): did not show TDI | time-dependent inhibition (TDI) (CYP2D15): did not show TDI | IC50 (Probit) [4]: could not be determined since 50% growth inhibition is not achieved in the assay | concentrations that significantly diminished proliferation vs vehicle control ([4]; P<0.05): ≥ 10 µg/mL | time-dependent inhibition (TDI) (CYP2B11): did not show TDI | IC50 (Probit) [5]: could not be calculated because of lack of growth inhibition | concentrations that significantly diminished proliferation vs vehicle control ([5]; P<0.05): 20 µg/mL | IC50 ([6]; Canis lupus familiaris, B-cell, read-out: IC50 (Probit)): 15.1 µg/mL (≈ 42.1 µM) | concentrations that significantly diminished proliferation vs vehicle control ([6]; P<0.05): ≥ 5 µg/mL

— patent US20240075087A1, “COMPOSITIONS AND METHODS COMPRISING HEMP EXTRACT FOR THE TREATMENT OF ANIMALS IN NEED” (Portland Technology Holdings LLC, priority 2021, published 2024)
